Laboratory results reported in patent US20250115595A1, “INHIBITORS OF HYPOXIA-INDUCIBLE FACTORS” (The Johns Hopkins University, priority 2021, published 2025).

How the values were obtained:
[1] = test system: C57BL/6 mice; test: Laser CNV model, intraperitoneal dosing; type: in vivo, mouse
Description: The laser CNV model for neovascular (wet) age-related macular degeneration was used to assess the efficacy of 32-134D in blocking HIF-regulated gene expression in the eye (FIG. 20A). C57BL/6 mice were treated with laser on day 0. Beginning on day 2, mice were treated with 5 daily intraperitoneal (IP) injections (day 2 to day 6) with 32-134D at 40 mg/kg or with vehicle control. On day 7, choroidal flat mounts were prepared and stained with isolectin-B4 to examine the CNV lesions. The expression of Vegf (FIG. 20B) and Angpt14 (FIG. 20C) mRNA was also measured at day 7 following laser treatment.
C57BL/6 mice were treated with laser on day 0. Beginning on day 2, mice were treated with 5 daily IP injections (day 2 to day 6) with 32-134D at 40 mg/kg or with vehicle control. On day 7, mice were euthanized and choroidal flat mounts were stained with isolectin-B4 to examine the area of CNV lesions.

[2] = test system: HIF transcriptional activity; test: Luciferase reporter assay (FLuc/RLuc) in hypoxic Hep3B-c1 cells; type: cell-based; settings: Homo sapiens, FLuc/RLuc ratio, 1% O2, 24 hours
Description: The NCI CellMiner database contains expression data on 25,698 mRNAs in 60 human cancer cell lines that were exposed to 21,770 chemical compounds (Reinhold W C, et. al., Cancer Res. 2012; 72(14):3499-3511). The CellMiner database was interrogated for compounds that induced changes in gene expression highly correlated with those induced by acriflavine, but would be structurally unrelated to acriflavine. Compounds that satisfied these criteria were analyzed in Hep3B-c1 cells (Zhang H. et. al., Proc Natl Acad Sci USA. 2008; 105(50):19579-19586), which are stably transfected with: HIF dependent reporter plasmid p2.1, in which firefly luciferase (FLuc) coding sequences are located downstream from a hypoxia response element (HRE) and a basal SV40 promoter; and control reporter pSVR, in which Renilla luciferase (RLuc) coding sequences are downstream of the basal SV40 promoter only (FIG. 1A).
Hep3B-c1 cells (Zhang 2008), which are stably co-transfected with reporter plasmids p2.1, a hypoxia-inducible firefly luciferase reporter gene containing a hypoxia response element (HRE), and pSVR, a constitutively expressed Renilla luciferase reporter gene, were seeded on 24-well plates. Cells were treated with compounds the following day and exposed to 20% or 1% O2 for 24 hours. For transient transfection, cells were seeded, transfected with the listed plasmids and compounds, and exposed to 20% or 1% O2 for 24 hours. FLuc/RLuc ratios were determined using the Dual Luciferase Reporter Assay System (Promega) and the VICTOR Nivo plate reader (PerkinElmer).

[3] = test system: tumor immune microenvironment; test: Flow cytometry of immune cell populations in Hepa1-6 tumors; type: in vivo, mouse; settings: 200-mm3 tumors, within 8 days
Description: To analyze the mechanism by which 32-134D increased the response to anti-Pd1 therapy, tumor-bearing mice were treated with 32-134D or vehicle, and immune cell populations in well-established 200-mm^3 tumors were analyzed by flow cytometry.
Hepa1-6 tumors were digested with collagenase (1 mg/ml) at 37° C. for 30 minutes and the resulting single cell suspension was passed through a 70-μm cell strainer and washed twice with cold PBS. Cells were resuspended in FC buffer for subsequent flow cytometry analysis. […]

[4] = test system: HIF-1α and HIF-2α; test: Immunoblot of HIF-1α and HIF-2α accumulation in hypoxic MIO-M1 cells; type: cell-based, human; settings: as little as 1 μM, 4 hours
Description: It has previously been reported that the cells in the inner nuclear layer of the retina that express VEGF in response to hypoxia/ischemia are Müller glial cells (X. Xin et al., Proc Natl Acad Sci USA 110, E3425-3434 (2013)). […] The effects of 32-134D on HIF-1α accumulation persisted up to 16 hours after treatment of cultured cells (FIG. 27B).
Cells culture and reagents: MIO-M1 cells were a gift from Dr. Astrid Limb (University College London, Institute of Ophthalmology, London, United Kingdom). MIO-M1 and HUVEC cells were cultured in DMEM with 10% (vol/vol) FBS (Quality Biological) and 1% penicillin/streptomycin (Cellgro). Hypoxia chambers were used to expose cells. Evans Blue (E2129) was purchased from Sigma-Aldrich.
Immunoblot assays and ELISAs: Cell, neurosensory retina, and D120 retinal organoid lysates were subjected to 4-15% gradient SDS/PAGE (Invitrogen). Immunoblot assays were performed as previously described (X. Xin et al., 2013, Proc Natl Acad Sci USA 110, E3425-3434).

Brc1ccc2c(-c3csc(-c4c[nH]c5c(Br)cccc45)n3)c[nH]c2c1 [Compound 32-134D, 4-(6-bromo-1H-indol-3-yl)-2-(7-bromo-1H-indol-3-yl)thiazole]
Vegf mRNA in eyes ([1]; 40 mg/kg IP, day 7 after laser): significantly decreased | CNV lesions ([1]; 5 daily IP injections 40 mg/kg, day 7): marked decrease in CNV | Angpt14 mRNA expression in eyes ([1]; 20 or 40 mg/kg IP, day 7 after laser): significantly decreased | IC50 [2]: 2500 nM | percentage of Cd8+Ifng+ activated CTLs and Nk1.1+Cd3−Cd314+ activated NK cells [3]: significantly increased | percentage of Cd11b+F4/80+ tumor-associated macrophages and Cd11b+Ly6g+Ly6c− myeloid-derived suppressor cells [3]: decrease | HIF-1α and HIF-2α protein accumulation in response to hypoxia [4]: decreased
